27 compounds from patent publication US9611457B2, “Triazine derivatives as differentiation catalysts” (TECHNISCHE UNIVERSITAET WIEN, priority 2011, dated 2017) can be followed below.

The test system of series [1] is Atrial natriuretic factor (ANF) expression, P19 cells. Nature of the series: ANF test (ANF promoter luciferase reporter) in P19 cells. The note with it: for ANF expression level / efficiency, stated in words: ANF test, P19 cells (DTAB and summary statements also cover C2C12). The class given is cell-based, murine. Further details: key to Evaluation (luminescence in relation to the blank): −: decrease of luminescence compared to the blank value; +: measurable increase; ++: at least 1.5-fold increase; +++: at least 2-fold increase. From the text:
Atrial natriuretic factor (ANF) or atrial natriuretic peptide (ANP) is a cyclic peptide hormone made up of 28 amino acids, which is predominantly emitted by the muscle cells (myocytes) of the atrium of the heart. It is stored in the atrium as a pro-hormone made of 126 amino acids and is cleaved by serine protease corine into an N-terminal part and the biologically active ANF, which is often used as a cardiac-specific marker protein. In cell differentiation measurements, i.e. in determining the extent to which certain cells have become “cardiac cell-like” by differentiation, often a reporter gene located downstream of the ANF gene is used, as it expression product is easier to detect than the concentration of ANF in a cellular culture, for example, a luciferase gene. Luciferase in an enzyme which catalyzes the oxidation of a luminescent substrate (luciferine). While that happens, light is emitted, and the intensity of that light is correlated with the expression level of ANF and can therefore serve as a measure of ANF expression.
Initial attempts of ANF expression screenings were performed with P19 cells, i.e. murine embryonal carcinoma cells obtained from the ATCC, or C2C12 cells, i.e. a murine myoblast cell line, as models. In preparation, a plasmid was first constructed by amplifying a gene fragment containing a rat ANF promoter region and subcloning it into the PCL3-BV luciferase reporter plasmid of Promega. The P19 cells were temporarily transfected with said plasmid and cultured in Modified Eagle's Medium alpha (MEM-α) with 7.5% neonatal calf serum and 2.5% fetal bovine serum at 37° C. under 5% CO2 in monolayers for 8 days, during which the medium was exchanged three times. The respective compounds were added at about 60% confluence in DMSO as solvents at a concentration of 1 μM or DMSO alone (as a blank). The luminescence of the samples was measured with a Perkin Elmer Victor V 1420 Multilabel Counter. Their increase or decrease in the presence of the compounds of formula (I) is given in Table 1 below in relation to the blank.
The evaluations have the following meanings: • − decrease of luminescence compared to the blank value; • + measurable increase; • ++ at least 1.5-fold increase; • +++ at least 2-fold increase; • * represents C2C12 cells; and • ** represents P19 cells.
In general terms: A reporter such as luciferase makes a cellular process visible.

Setting [2] is: P19 cells (**), compound 1 μM in DMSO, 8 days culture, relative to DMSO blank.

For `CCNc1nc(Cl)nc(Nc2ccc(OC)cc2)n1` [(3), 6-chloro-N2-ethyl-N4-(4-methoxyphenyl)-1,3,5-triazin-2.4-diamine], the melting point (commonly the temperature, or range, at which the solid turns liquid) fell in the range of 174 to 176 °C. The “ANF expression level / efficiency, stated in words” value in series [1] is “the poorest measurement results among all compounds”. For the same compound, in series [1] (setting [2]), the “Evaluation (luminescence in relation to the blank)” value (shortened to “Evaluation”) is listed as “−**”.

As for `COc1ccc(Nc2ncnc(NCCO)n2)cc1` [(4), 2-[4-(4-methoxyphenylamino)-1,3,5-triazin-2-ylamino]ethanol], the melting point was in the range of 160 to 164 °C. The “ANF expression level / efficiency, stated in words” value in series [1] is “the poorest measurement results among all compounds”. The “Evaluation” value in series [1] (setting [2]) is recorded as “−**”.

For `CCOC(=O)c1ccc(Nc2nc(Oc3ccccc3)nc(Oc3ccccc3)n2)cc1` [(5), 4-[(4.6-diphenoxy-1,3,5-triazin-2-yl)amino]benzoic acid ethyl ester], the melting point lay within 159 to 161 °C. Moreover, the “Evaluation” value in series [1] (setting [2]) was “−**”.

The compound `COC(=O)c1cccc(Nc2nc(Oc3ccccc3)nc(Oc3ccccc3)n2)c1` [(6), 3-[(4.6-diphenoxy-1,3,5-triazin-2-yl)amino]benzoic acid methyl ester] had a melting point of 198 to 199.5 °C.

Turning to `COC(=O)c1cccc(Nc2nc(Oc3ccccc3)nc(Oc3ccc(Cl)cc3)n2)c1` [(7), 3-{[4-(4-chlorophenoxy)-6-phenoxy-1,3,5-triazin-2-yl]amino}benzoic acid methyl ester], the melting point was 186.5 to 188 °C. Further, the “Evaluation” value in series [1] (setting [2]) is reported as “−**”.

`COC(=O)c1cccc(Nc2nc(Oc3ccccc3)nc(Oc3cccc(Cl)c3)n2)c1` [(8), 3-{[4-(3-chlorophenoxy)-6-phenoxy-1,3,5-triazin-2-yl]amino}benzoic acid methyl ester] showed a melting point of 151.5 to 156 °C. Besides, the fold induction at 1 µM in series [1] (Mus musculus, 192 h, P19 cells (**), compound 1 μM in DMSO, 8 days culture, relative to DMSO blank, read-out: Evaluation (luminescence in relation to the blank)) was at least 1.5.

In turn, `COC(=O)c1cccc(Nc2nc(Oc3ccccc3)nc(Oc3ccccc3Cl)n2)c1` [(9), 3-{[4-(2-chlorophenoxy)-6-phenoxy-1,3,5-triazin-2-yl]amino}benzoic acid methyl ester] gave a melting point of 139 to 141.5 °C. Besides, the “Evaluation” value in series [1] (setting [2]) was “−**”.

In turn, `COC(=O)c1cccc(Nc2nc(Oc3ccccc3)nc(Oc3ccc(C(C)(C)C)cc3)n2)c1` [(10), 3-{[4-(4-t-butylphenoxy)-6-phenoxy-1,3,5-triazin-2-yl]amino}benzoic acid methyl ester] displayed a melting point of 85 to 86 °C. Further, the “Evaluation” value in series [1] (setting [2]) is “−**”.

For the compound `COC(=O)c1cccc(Nc2nc(Oc3ccccc3)nc(Oc3ccc(OC)cc3)n2)c1` [(11), 3-{[4-(4-methoxyphenoxy)-6-phenoxy-1,3,5-triazin-2-yl]amino}benzoic acid methyl ester], the melting point was in the range of 56 to 60 °C. For the same compound, the “Evaluation” value in series [1] (setting [2]) was “−**”.

Turning to `COC(=O)c1cccc(Nc2nc(Oc3ccccc3)nc(Oc3cccc([N+](=O)[O-])c3)n2)c1` [(13), 3-{[4-(3-nitrophenoxy)-6-phenoxy-1,3,5-triazin-2-yl]amino}benzoic acid methyl ester], the “Evaluation” value in series [1] (setting [2]) was “−**”.

`COC(=O)c1cccc(Nc2nc(Oc3ccc(OC)cc3)nc(Oc3ccc(C=O)cc3OC)n2)c1` [(15), 3-{[4-(4-formyl-2-methoxyphenoxy)-6-(4-methoxyphenoxy)-1,3,5-triazin-2-yl]amino}benzoic acid methyl ester] had a melting point of 79 to 82 °C.

As for `COC(=O)c1cccc(Nc2nc(Oc3ccc(OC)cc3)nc(Oc3ccc(Br)cc3C=O)n2)c1` [(16), 3-{[4-(4-bromo-2-formylphenoxy)-6-(4-methoxyphenoxy)-1,3,5-triazin-2-yl]amino}benzoic acid methyl ester], the melting point was determined as 180 °C.

Compound `COC(=O)c1cccc(Nc2nc(Oc3ccc(C#N)cc3)nc(Oc3ccc(OC)cc3)n2)c1` [(17), 3-{[4-(4-cyanophenoxy)-6-(4-methoxyphenoxy)-1,3,5-triazin-2-yl]-amino}benzoic acid methyl ester] came in with a melting point of 132 to 134.5 °C.

Take `CC(C)(C)OC(=O)c1cccc(Nc2nc(Oc3ccccc3)nc(Oc3ccccc3)n2)c1` [(18), 3-[(4.6-diphenoxy-1,3,5-triazin-2-yl)amino]benzoic acid t-butyl ester]: the melting point is 208 to 209 °C.

For `CC(C)(C)OC(=O)c1cccc(Nc2nc(Oc3ccccc3)nc(Oc3ccc(Cl)cc3)n2)c1` [(19), 3-{[4-(4-chlorophenoxy)-6-phenoxy-1,3,5-triazin-2-yl]amino}benzoic acid t-butyl ester], the melting point is 172.5 to 174 °C.

As for `CC(C)(C)OC(=O)c1cccc(Nc2nc(Oc3ccccc3)nc(Oc3cccc(Cl)c3)n2)c1` [(20), 3-{[4-(3-chlorophenoxy)-6-phenoxy-1,3,5-triazin-2-yl]amino}benzoic acid t-butyl ester], the melting point fell in the range of 187.5 to 190.5 °C.

Regarding `CC(C)(C)OC(=O)c1cccc(Nc2nc(Oc3ccccc3)nc(Oc3ccccc3Cl)n2)c1` [(21), 3-{[4-(2-chlorophenoxy)-6-phenoxy-1,3,5-triazin-2-yl]amino}benzoic acid t-butyl ester], the melting point is 191 to 192 °C.

With `CC(C)(C)OC(=O)c1cccc(Nc2nc(Oc3ccccc3)nc(Oc3ccc(C(C)(C)C)cc3)n2)c1` [(22), 3-{[4-(4-t-butylphenoxy)-6-phenoxy-1,3,5-triazin-2-yl]amino}benzoic acid t-butyl ester], the melting point was in the range of 139 to 141 °C.

For the compound `COc1ccc(Oc2nc(Nc3cccc(C(=O)OC(C)(C)C)c3)nc(Oc3ccccc3)n2)cc1` [(23), 3-{[4-(4-methoxyphenoxy)-6-phenoxy-1,3,5-triazin-2-yl]amino}benzoic acid t-butyl ester], the melting point lay in the range of 68 to 70 °C.

`CC(C)(C)OC(=O)c1cccc(Nc2nc(Oc3ccccc3)nc(Oc3ccc(C#N)cc3)n2)c1` [(24), 3-{[4-(4-cyanophenoxy)-6-phenoxy-1,3,5-triazin-2-yl]amino}benzoic acid t-butyl ester]: the melting point was in the range of 176.5 to 178.5 °C.

Regarding `CC(C)(C)OC(=O)c1cccc(Nc2nc(Oc3ccccc3)nc(Oc3cccc([N+](=O)[O-])c3)n2)c1` [(25), 3-{[4-(3-nitrophenoxy)-6-phenoxy-1,3,5-triazin-2-yl]amino}benzoic acid t-butyl ester], the melting point was in the range of 137 to 148 °C.

Compound `COc1cc(C=O)ccc1Oc1nc(Nc2cccc(C(=O)OC(C)(C)C)c2)nc(Oc2ccccc2)n1` [(26), 3-{[4-(4-formyl-2-methoxyphenoxy)-6-phenoxy-1,3,5-triazin-2-yl]-amino}benzoic acid t-butyl ester] returned a melting point of 76 to 79 °C.

`COc1ccc(Oc2nc(Nc3cccc(C(=O)OC(C)(C)C)c3)nc(Oc3ccc(C=O)cc3OC)n2)cc1` [(27), 3-{[4-(4-formyl-2-methoxyphenoxy)-6-(4-methoxyphenoxy)-1,3,5-triazin-2-yl]amino}benzoic acid t-butyl ester]: the melting point lay within 88 to 106 °C.

As for `COc1ccc(Oc2nc(Nc3cccc(C(=O)OC(C)(C)C)c3)nc(Oc3ccc(C#N)cc3)n2)cc1` [(28), 3-{[4-(4-cyanophenoxy)-6-(4-methoxyphenoxy)-1,3,5-triazin-2-yl]-amino}benzoic acid t-butyl ester], the melting point was in the range of 161 to 164 °C.

In turn, `COc1ccc(Oc2nc(Nc3cccc(C(=O)O)c3)nc(Oc3ccc(C=O)cc3OC)n2)cc1` [(37), 3-{[4-(4-formyl-2-methoxyphenoxy)-6-(4-methoxyphenoxy)-1,3,5-triazin-2-yl]amino}benzoic acid] had a melting point of 180 to 182 °C.

In the case of `OCc1cccc(Nc2nc(Oc3ccccc3)nc(Oc3cccc(Cl)c3)n2)c1` [(42), {3-[(4-(3-chlorophenoxy)-6-phenoxy-1,3,5-triazin-2-yl)amino]phenyl}-methanol], the “Evaluation” value in series [1] (setting [2]) was “+** and (42) (m-chloro): +”.

With `COc1ccc(Oc2nc(Nc3cccc(CO)c3)nc(Oc3ccccc3)n2)cc1` [(45), {3-[(4-(4-methoxyphenoxy)-6-phenoxy-1,3,5-triazin-2-yl)amino]-phenyl}methanol], the “Evaluation” value in series [1] (setting [2]) was “+**”.
